# Where two headings read alike, the source gives them in different places.
# Assays:
# [1] = tested on: MDA-231 human breast tumor; experiment: MDA-231 Human Breast Tumor Orthotopic Xenograft Model (mammary fat pad); type: in vivo, nude mice; conditions: Breast MDA-231 (1 study); KPU-02 7.5 mg/kg ip Days 1, 4, 8, 11, 15 + Paclitaxel qdx5
# Procedure: The animals used were: female nude mice (nu/ni) (MDA-231 study) or B6D2F1 (B16-F10 studies) mice between 5 and 6 weeks of age (˜20 g, Harlan); group size was 10 mice per group unless otherwise indicated.
# The cell lines used were: MDA-MB-231 human breast tumor and B16-F10 murine melanoma cells.
# NPI compounds were administered as monotherapy via the intraperitoneal route at the doses indicated for the individual study; for the combination studies the selected reference chemotherapy agents were injected 15-30 min prior to the NPI compound.
# Female nude mice were injected in the mammary fat pad with 2×10^6 MDA-231 cells harvested from in vitro cell culture. When the tumor size reached 5 mm×5 mm (about 14-28 days) the animals were matched into treatment and control groups. The study then proceeded as described for the HT-29 model, using paclitaxel as the standard chemotherapy agent.
# In this model unless otherwise noted for the individual study, the test compounds were administered via the intraperitoneal route on Days 1, 4, 8, 11 and 15 (q3dx5); paclitaxel was administered via the intraperitoneal route on Days 1-5 (qdx5).
# This model involves the placement of the human tumor tissue into the mouse mammary fat pad, a surrogate of the natural environment. In this manner the possibility of a positive effect due to a specific action on the subcutaneous vascular bed is avoided.
# [2] = tested on: A549 human non small cell lung tumor; experiment: A549 Human Lung Tumor Xenograft Model; type: in vivo, nude mice; conditions: Lung A549 (1 study); KPU-02 7.5 mg/kg ip qdx5 + Taxotere Days 1, 3, 5
# Procedure: (§1) Animals used were (exceptions are indicated for individual studies): female nude mice (nu/nu) between 5 and 6 weeks of age (˜20 g, Harlan); group size was 9-10 mice per group unless otherwise indicated.
# (§2) Selected novel compounds were administered as monotherapy via the intraperitoneal (i.p.) route at the doses indicated for the individual study; for the combination studies the selected reference chemotherapy agents were injected 15-30 min prior to the compound.
# (§3) Saline dilutions are used to achieve the injection concentrations used for the reference compounds.
# Animals were implanted s.c. by trocar with fragments of A549 tumors harvested from s.c. growing tumors in nude mice hosts. When the tumor size reached 5 mm×5 mm (about 10-17 days) the animals were matched into treatment and control groups.
# MCF-7 human breast tumor = experiment: MCF-7 Human Breast Tumor Xenograft Model; type: in vivo, nude mice; conditions: Breast MCF-7 (2 studies); KPU-02 7.5 mg/kg ip qdx5 + Taxotere Days 1, 3, 5
# Procedure: as §1, §2, §3
# Female nude mice (˜20 g) were implanted s.c. with 21-day release estrogen (0.25 mg) pellets 24 hours prior to the s.c. implantation with MCF-7 tumor fragments (harvested from s.c. tumors in nude mice hosts). The study then proceeded as described for the HT-29 model, using taxotere as the standard chemotherapy agent.
# In this model unless otherwise noted for the individual study, the novel compounds were injected via the intraperitoneal route daily on Days 1-5, inclusive (qdx5); taxotere was administered intravenously on Days 1, 3 and 5 (qodx3).
# The doses of the compounds were administered on Days 1, 2, 3, 4, and 7; Taxotere was administered on Days 1, 3 and 7.
# [3] = tested on: MCF7 cells, GFP-alpha-tubulin; experiment: Analysis of microtubule dynamics, time-lapse microscopy; type: cell-based, human; conditions: concentrations effecting 25% or 50% of maximal mitotic block
# MAP-rich microtubules = experiment: Microtubule mean length distributions, transmission electron microscopy; type: biochemical, bovine; conditions: in words
# Procedure: Transmission electron microscopy was used to determine the mean length distribution of microtubules in the absence or presence of tested agent. At 75 minutes and prior to sedimentation, 10 μl aliquots from the polymer mass experiments were fixed by dilution into 290 μl PEM100-buffered 0.2% glutaraldehyde. Thirty microliters of fixed sample was settled onto formvar-coated 150 ICG mesh electron microscope grids for 90 seconds. Excess sample was wicked off with Whatman filter paper. Thirty microliters of cytochrome C (1 mg/ml) was applied for 30 seconds to enhance protofilament resolution and facilitate negative staining. Uranyl acetate (1.5%) was applied for 20 seconds and the excess was wicked off Grids were viewed in a Jeol electron microscope-1200 EX11 at 2000× and 30,000× magnification. The Zeiss MOPIII was used to determine microtubule length distributions and mean lengths for at least 100 microtubules per sample.
# HT-29 human colon tumor = experiment: HT-29 Human Colon Tumor Xenograft Model; type: in vivo
# Procedure: as §2, §3
# Animals were implanted subcutaneously (s.c.) by trocar with fragments of HT-29 tumors harvested from s.c. growing tumors in nude mice hosts. When the tumor size reached 5 mm×5 mm (about 10-17 days) the animals were matched into treatment and control groups. Mice were weighed twice weekly and tumor measurements were obtained using calipers twice weekly, starting on Day 1. The tumor measurements were converted to estimated mg tumor weight using the formula (W^2×L)/2. When the estimated tumor weight of the control group reached an average of 1000 mg the mice were weighed, sacrificed and the tumor removed.
# P22 rat sarcoma [4] = experiment: Tumor necrosis in the P22 rat sarcoma model; conditions: 7.5 and 15 mg/kg IP, 24 hours post-dose
# MCF7 cells = experiment: Immunofluorescence microscopy of spindle and interphase microtubules; type: cell-based, human; conditions: at the IC50 for mitotic block, 20 hours
# Procedure: MCF7 human breast carcinoma cells (American Type Culture Collection, Manassas, Va.) stably transfected with GFP-alpha-tubulin (Clontech, Palo Alto, Calif.) were cultured in Dulbecco's modified Eagle's medium supplemented with 5% fetal bovine serum, 0.1% penicillin/streptomycin and nonessential amino acids (Sigma) in 250-ml tissue culture flasks or 35-mm six-well plates (doubling time, 29 hours) at 37° C. in 5% CO2.
# Cells were prepared as for mitotic progression, except that cells were seeded onto poly-L-lysine (50 μg/ml, Sigma) treated coverslips. On the day of staining, cells were rinsed in PBS and fixed in 10% formalin overnight at 37° C. Cells were rinsed in PBS, permeabilized in methanol at −20° C., and hydrated with PBS. Coverslips were treated with 20% normal goat serum in PBS/BSA (1%) for 1 h at room temperature. Cells were incubated in a mouse monoclonal cocktail of anti-alpha- and beta-tubulin, DM1A/DM1B diluted in PBS/BSA for 1 hour at room temperature, then stained with FITC-conjugated secondary antibody and DAPI. Coverslips were mounted using Prolong antifade media (Molecular Probes, Eugene Oreg.).
# HuVEC cells = experiment: Tubulin staining assay, 200 nM, 30 min (Example 15); type: cell-based, human
# Procedure: Human umbilical vein endothelial cells (HuVECs; Cambrex CC2519A) were maintained at subconfluent densities in EGM-2 (Cambrex) media. […] For tubulin staining assays, HuVEC cells were seeded at a density of 3×10^4 cells/ml in EGM-2 on tissue culture compatible coverslips (Fisher). The plates were returned to the incubator for 2 days.
# Stock (20 mM) solutions of the test compounds were prepared in 100% DMSO. 400× concentrated dilutions of the compounds were prepared in 100% DMSO. 5 μl volumes of the dilutions were added to individual wells resulting in a final concentration of 200 nM. […] The plates were returned to the incubator for 30 minutes.
# The cells were rinsed in dPBS before fixation in 10% (v/v) neutral buffered formalin for 10 minutes at room temperature. Following fixation, α-tubulin was visualized by indirect immunofluorescence. Specifically, the cells were permeabilized in 0.2% (v/v) triton X-100/dPBS for 10 minutes. The cells were washed prior to transferring the coverslips to a humidified chamber, the coverslips were blocked for two hours in antibody buffer (2% (w/v) BSA/0.1% (v/v) Tween 20/dPBS). The coverslips were incubated with 50 μl of 0.1 μg/ml mouse α-tubulin (Molecular Probes) in antibody buffer for 1 hour before washing and incubation with 50 μl of 1 μg/ml goat anti-mouse FITC (Jackson ImmunoResearch Laboratories) for one hour in the dark. […]
# P22 rat sarcoma [5] = type: in vivo, rats; conditions: 15 mg/kg IP
# Procedure: In contrast, blood flow in non-tumor tissues was affected to a much lesser extent at 1 hour (see FIG. 35).
# [6] = tested on: N202 mammary tumor vasculature; experiment: Murine syngeneic pseudo-orthotopic breast cancer model, dorsal skinfold chamber
# Excerpt: A murine syngeneic “pseudo-orthotopic” breast cancer model was used to address these issues. […] To create the “pseudo-orthotopic milieu,” the coverslip of a dorsal skinflap chamber was removed and small pieces of mammary fatpad from donor mice were implanted into the chamber. On top of the fatpad graft, tumor spheroids containing N202 mammary tumor cells transduced with Histone (H2B)-green fluorescent protein (GFP) were applied. The use of H2B-GFP transduced cells allows for visualizing tumor growth and monitoring mitosis and apoptosis.
# Fluorescence video microscopy allows for the relatively non-invasive study of tumor microcirculation in conscious mice.
# Tumor area, blood flow rate, and vascular density within and surrounding the tumor were visualized. Real-time observations were recorded at various time-points using still photos and video microscopy.
# [7] = tested on: bovine brain microtubule protein; experiment: Tubulin polymerization assay, turbidity (Example 21); type: biochemical; conditions: 5 μM in 1% DMSO
# Procedure: Polymerization of bovine brain microtubule protein (Cytoskeleton, Inc., Denver, Colo.) was monitored by an increase in turbidity at 37° C. in microtubule buffer (80 mM PIPES, pH 6.8, 1 mM MgCl2, 1 mM EGTA, 1 mM GTP, 10% glycerol). […] Turbidity was measured as an increase in optical density at 340 nm with a thermo-controlled spectrophotometer (model 680XR microplate Reader™, Bio-Rad Laboratories).
# tubulin = tubulin (Bos taurus, UniProt Q6B856); experiment: Photoaffinity labeling study of tubulin; type: binding; conditions: UV 365 nm, +/- colchicine
# Excerpt: KPU-244 and KPU-244-B1 can both be photoactivated by UV light, resulting in covalent linkage to any protein via the photoreactive benzophenone group. In one embodiment, tubulin is photoaffinity labeled with KPU-244 or KPU-244-B1. Upon irradiation with UV light, the benzophenone group forms a free radical at the carbonyl group, followed by H-abstraction in the acceptor protein, insertion of the benzophenone radical into the abstracted site, and recombination to form the labeled protein.
# UV-irradiated and control samples were visualized by 15% SDS-PAGE followed by Western blotting. Biotin-labeled molecular weight markers (Amersham Pharmacia Biotech) were included in each gel. Each gel was electroblotted onto a nitrocellulose membrane (Hybond-ECL, Amersham Pharmacia). The gels were then stained with Coomassie Brilliant Blue (Bio-Rad laboratories) to verify that equivalent amounts of tubulin were loaded in each lane. The nitrocellulose membrane was incubated with 5% skim milk in 100 mM phosphate-buffered saline (PBS, pH 7.4) at room temperature for 1 hour, then washed with 100 mM PBS (pH 7.4) containing 0.1% Tween 20 (PBS-T) for 20 min one time, then twice for 10 min each. The membrane was then incubated with streptavidin-horseradish peroxidase conjugate (diluted 1000-fold with PBS-T) for 1 hour at room temperature, and washed with PBS-T as described above. […]
# HT-29 human colon cells = experiment: Tumor cytotoxicity assay, resazurin fluorescence, 48 h (Example 6); type: cell-based; conditions: Example 23
# Sequence of tubulin (Q6B856 whole entry): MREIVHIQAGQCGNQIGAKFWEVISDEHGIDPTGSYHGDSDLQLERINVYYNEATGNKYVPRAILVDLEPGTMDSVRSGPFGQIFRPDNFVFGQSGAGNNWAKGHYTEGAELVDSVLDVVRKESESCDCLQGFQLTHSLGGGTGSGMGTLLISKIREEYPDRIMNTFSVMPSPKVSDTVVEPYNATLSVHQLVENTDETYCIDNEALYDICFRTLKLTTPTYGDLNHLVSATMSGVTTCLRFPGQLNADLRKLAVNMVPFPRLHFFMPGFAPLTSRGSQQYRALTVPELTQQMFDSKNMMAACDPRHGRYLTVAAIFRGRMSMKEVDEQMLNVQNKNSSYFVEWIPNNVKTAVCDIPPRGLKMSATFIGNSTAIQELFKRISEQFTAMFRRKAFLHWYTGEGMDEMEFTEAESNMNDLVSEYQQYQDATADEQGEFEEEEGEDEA
# Sequence of tubulin (P81947 whole entry, further chain): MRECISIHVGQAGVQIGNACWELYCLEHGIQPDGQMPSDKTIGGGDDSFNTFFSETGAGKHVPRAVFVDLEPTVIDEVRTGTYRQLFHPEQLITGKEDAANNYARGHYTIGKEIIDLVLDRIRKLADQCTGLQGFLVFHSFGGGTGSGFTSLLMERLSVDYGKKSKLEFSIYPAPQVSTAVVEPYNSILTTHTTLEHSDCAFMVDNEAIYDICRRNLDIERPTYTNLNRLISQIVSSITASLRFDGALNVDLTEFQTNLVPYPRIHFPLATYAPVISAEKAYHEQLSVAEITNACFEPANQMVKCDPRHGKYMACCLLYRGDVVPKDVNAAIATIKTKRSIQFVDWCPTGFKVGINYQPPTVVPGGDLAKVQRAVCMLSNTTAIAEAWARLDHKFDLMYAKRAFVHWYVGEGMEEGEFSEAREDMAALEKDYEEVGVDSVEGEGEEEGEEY
structure (smiles),measurement,setting,value
CC(C)(C)c1[nH]cnc1/C=c1\[nH]c(=O)/c(=C/c2ccccc2)[nH]c1=O [KPU-02],Tumor Growth Inhibition (%) KPU-02 + Reference,[1],71%
same,Tumor Regression (#/total) NPI + Reference,[1],0/10
same,Tumor Growth Inhibition (%) KPU-02 + Reference,[2],74%
same,Tumor Regression (#/total) NPI + Reference,[2],0/10
same,Tumor Regression (#/total) NPI + Reference,MCF-7 human breast tumor,3/20
same,MT dynamic instability,[3],did not have a measurable effect on MT dynamic instability
same,MT nucleation,MAP-rich microtubules,did not affect MT nucleation
same,Tumor Regression (#/total) NPI + Reference,"HT-29 human colon tumor; ip, 7.5 mg/kg",4/30
same,dose-dependent effect in the HT-29 model,HT-29 human colon tumor; with CPT-11,7.5 mg/kg was statistically greater than 2.5 mg/kg
same,tumor necrosis,P22 rat sarcoma [4],dose-dependent tumor necrosis
same,mitotic cells containing asters or foci of tubulin,MCF7 cells,75%
same,tubulin depolymerization in HuVEC cells,HuVEC cells,rapidly induce tubulin depolymerization
same,tumor blood flow,P22 rat sarcoma [5]; 1 hour after administration,23 % of vehicle
same,tumor blood flow,P22 rat sarcoma [5]; 24 hours later,59 % vehicle
same,tolerability,[6]; i.v. infusion 5-10 mg/kg,well tolerated
same,effect on tumor vasculature,[6]; single i.v. treatment,rapid collapse of the central vasculature
CC(C)(C)c1ocnc1/C=c1\[nH]c(=O)/c(=C/c2cccc(C(=O)c3ccc(CNC(=O)CCCC[C@@H]4SC[C@@H]5NC(=O)N[C@@H]54)cc3)c2)[nH]c1=O [KPU-244-B1],tubulin polymerization,[7],inhibit tubulin polymerization
same,binding to tubulin by photoaffinity labeling,tubulin,selectively binds and covalently reacts with tubulin at the colchicine binding site
same,IC50,HT-29 human colon cells,0.91 µM

# Reference: patent US8129527B2, “Analogs of dehydrophenylahistins and their therapeutic use” (Nereus Pharmacuticals, Inc., priority 2006, dated 2012)
